{"source": "patent US20220088031A1", "about": "“METHODS AND COMPOSITIONS FOR TREATING RESISTANT AND RECURRENT FORMS OF CANCER” (Health Research, Inc., priority 2019, published 2022)", "type_in_all_cases": "cell-based, human", "key": {"E006AA cells [1]": {"tested_on": "E006AA cells", "test": "Caspase-3 (DEVDase) activity assay", "conditions": "DOC 24 hrs; AA PCa cells compared to CA PCa cells", "procedure": "Caspase-3 (DEVDase) activity assay: PCa cell lysates prepared in NP40 lysis buffer were incubated with DEVD-AFC (caspase-3 substrate) at 37° C. for 90 min in caspase activity assay buffer (50 mM HEPES pH 7.4, 150 mM NaCl, 1% CHAPS, 1 mM EDTA, 1 mM DTT, 50% glycerol). Fluorescence intensity was detected using a Synergy microplate reader at excitation and emission wavelengths of 400 nm and 508 nm, respectively. Arbitrary fluorescence units were normalized with protein content of cell lysates and represented as fold change compared to control groups."}, "E006AA cells [2]": {"tested_on": "E006AA cells", "test": "Cell death quantification, Trypan blue exclusion assay", "procedure": "Cell viability assay: PCa cells (5×10^4 cells/well) were seeded on 6-well cell culture plates and incubated with DOC (1-20 nM) for 24 hrs. Floating and attached cells were collected using trypsinization. Live and dead cells were counted under a light microscope using a trypan blue exclusion assay."}, "E006AA cells [3]": {"tested_on": "E006AA cells", "test": "Immunoblot analysis of CC in cytosolic and mitochondrial fractions", "conditions": "DOC 24 hrs; AA PCa cells", "procedure": "(§1) Subcellular fractionation for the preparation of cytosolic and mitochondrial fractions: Cells were seeded on 15 cm cell culture plates followed by treatment with various compounds for the preparation of cytosolic and mitochondrial fractions as described. Cells were harvested via gentle scraping, washed twice with ice cold 1×PBS, and resuspended in homogenization buffer (20 mM HEPES, pH 7.4; 10 mM KCl; 1.5 mM MgCl2; 1 mM EDTA; 1 mM EGTA; 250 mM sucrose) supplemented with freshly added 1× protease inhibitor cocktail and 1 mM DTT. Cells were incubated in homogenization buffer for 30 min in ice and homogenized using a dounce homogenizer (˜25 strokes using pestle A). Cell homogenates were pre-cleared of unbroken cells and debris using centrifugation at 1000 g for 10 min. The supernatant was collected in new tubes and centrifuged at 12000 rpm for 20 min to obtain a mitochondrial pellet, which was washed 3 times with homogenization buffer and lysed in NP40 buffer, and stored as the mitochondrial fraction. The supernatant was ultra-centrifuged to obtain purified cytosol.\n(§2) Immunoblotting: Immunoblotting was performed as described previously. Protein lysates were prepared using a lysis in NP-40 buffer (50 mM Tris-HCl pH 7.4, 150 mM NaCl, 1 mM EDTA, 1 mM EGTA, 1% NP-40) supplemented with protease and phosphatase inhibitor cocktail. Protein content was quantified using a micro BCA protein estimation kit (Thermo Scientific, Waltham, Mass.; Cat #23235). Protein samples were resolved on 4-20% Criterion gels, transferred on nitrocellulose membranes (BioRad, Hercules, Calif.) and subjected to immunoblotting. Membranes were blocked in 5% fat free dry milk (Blotto, Santa Cruz, Dallas, Tex.; Cat #sc-2324) prepared in PBS-T (Tween-20) and incubated overnight in primary antibodies (1:1000 dilution) at 4° C. with continuous shaking. After washing with PBS-T, membranes were incubated in HRP conjugated anti-mouse or anti-rabbit secondary antibody at room temperature for 1 hr. After washing with PBS-T, proteins were detected using Clarity chemiluminescent reagent (BioRad, Hercules, Calif.; Cat #1705061) and X-Ray films (ASI, Fort Lauderdale, Fla.; Cat #XR1570). Membranes were stripped using stripping buffer and probed with HRP conjugated beta-actin antibody to ensure equal loading of proteins."}, "LNCaP cells [4]": {"tested_on": "LNCaP cells", "test": "Cell cycle analysis, PI staining", "conditions": "DOC 24 hrs; CA PCa cells", "procedure": "(§3) Cell cycle analysis: Cell cycle phases in LNCaP and E006AA cells were analyzed using Propidium Iodide (PI) staining. Cells were treated with DOC for 24 hrs, fixed in 70% ethanol, stained with PI staining solution (0.1% sodium citrate, 0.2 mg/ml RNAse, 0.05 mg/ml propidium iodide, 0.2% NP 40, 1N HCl), and analyzed using flow cytometry. Data were analyzed using FACS-DIVA software and represented as % cells in each cell cycle phase."}, "E006AA cells [5]": {"tested_on": "E006AA cells", "test": "Cell cycle analysis, PI staining", "conditions": "DOC 24 hrs; AA PCa cells", "procedure": "as §3"}, "LNCaP cells [6]": {"tested_on": "LNCaP cells", "test": "Immunoblot analysis of CC and Drp1 in cytosolic and mitochondrial fractions", "conditions": "CA PCa cells", "procedure": "as §1, with “The supernatant was ultra-centrifuged to obtain purified cytosol.” left out\nImmunoblotting: Immunoblotting was performed as described previously. […] Protein content was quantified using a micro BCA protein estimation kit (Thermo Scientific, Waltham, Mass.; Cat #23235). […] After washing with PBS-T, proteins were detected using Clarity chemiluminescent reagent (BioRad, Hercules, Calif.; Cat #1705061) and X-Ray films (ASI, Fort Lauderdale, Fla.; Cat #XR1570). […]"}, "LNCaP, DU145, PC-3 cells": {"tested_on": "LNCaP, DU145, PC-3 cells", "test": "Clonogenic assay", "conditions": "exposure of DOC; CA PCa cells", "procedure": "(§4) Clonogenic assay: PCa cells were seeded in each well of 6 well cell culture plates. Cells were treated and plates were incubated in a CO2 cell culture incubator for 6 more days. Colonies were fixed in 10% formalin first and stained with 0.5% crystal violet solution. Plates were dried and pictures were captured using a Gel documentation system and Coomassie blue filter (Bio Rad, Hercules, Calif.)."}, "E006AA cells [7]": {"tested_on": "E006AA cells", "test": "Clonogenic assay", "conditions": "exposure of DOC; AA PCa cells", "procedure": "as §4"}, "[8]": {"tested_on": "p-Drp1^S616 in LNCaP cells", "test": "Immunoblot of p-Akt^S473 and p-Drp1^S616 after AKT inhibitor", "conditions": "Wort 1 μM", "procedure": "as §2"}}}
{"smiles": "CC(=O)O[C@@]12CO[C@@H]1C[C@H](O)[C@@]1(C)C(=O)[C@H](O)C3=C(C)[C@@H](OC(=O)[C@H](O)[C@@H](NC(=O)OC(C)(C)C)c4ccccc4)C[C@@](O)([C@@H](OC(=O)c4ccccc4)[C@H]21)C3(C)C", "note": "[DOC, Docetaxel]", "values": [{"measurement": "DOC-induced caspase activation", "setting": "E006AA cells [1]", "result": "reduced in various AA PCa cells compared to CA PCa cells"}, {"measurement": "DOC-induced cell death", "setting": "E006AA cells [2]; DOC 24 hrs, AA PCa cells compared to CA PCa cells", "result": "reduced in various AA PCa cells compared to CA PCa cells"}, {"measurement": "CC expression and release from mitochondria to cytosol", "setting": "E006AA cells [3]", "result": "not in AA PCa cells"}, {"measurement": "effect on the cell cycle", "setting": "LNCaP cells [4]", "result": "cell cycle arrest at G2/M phase"}, {"measurement": "effect on the cell cycle", "setting": "E006AA cells [5]", "result": "cell cycle arrest at G2/M phase"}, {"measurement": "CC expression and release from mitochondria to cytosol", "setting": "LNCaP cells [6]; DOC 24 hrs", "result": "induced CC expression and release from mitochondria to the cytosolic compartment"}, {"measurement": "Drp1 localization", "setting": "LNCaP cells [6]; in response to DOC", "result": "translocated to mitochondria"}, {"measurement": "colony forming ability (CFA)", "setting": "LNCaP, DU145, PC-3 cells", "result": "abolished CFA"}, {"measurement": "colony forming ability (CFA)", "setting": "E006AA cells [7]", "result": "not AA PCa"}]}
{"smiles": "O=C(O)C(=O)CBr", "note": "[3-BrPA, 3-bromopyruvate]", "values": [{"measurement": "cell death", "setting": "E006AA cells [2]; in combination with DOC (24 hrs)", "result": "induced dose-dependent cell death"}]}
{"smiles": "COC[C@H]1OC(=O)c2coc3c2[C@@]1(C)C1=C(C3=O)[C@@H]2CCC(=O)[C@@]2(C)C[C@H]1OC(C)=O", "note": "[wortmanin]", "values": [{"measurement": "Drp1 phosphorylation at S616", "setting": "[8]", "result": "Inhibition of Drp1 phosphorylation at S616"}]}
